Blank lines part the entries; values can stand above or below the molecule they belong to.
How the values were obtained:
KinIJ = target: T1, KinIJ (Streptomyces murayamaensis, UniProt A0A385LMJ2); assay: LC-MS detection of L-hydrazinosuccinate; assay type: biochemical; details: methyl or benzyl viologen, anaerobic
T1 construct: gene kinJ; heterodimer, His6 tag on one or both proteins, expressed aerobically in E. coli and purified anaerobically; KinI co-purified or added separately; with Ferredoxin KinI

KinJ = target: T2, KinJ (Streptomyces murayamaensis, UniProt A0A385LMJ2); assay: EPR spectroscopy; assay type: binding; details: ferric enzyme; axial ligand of heme; no ferredoxin
T2 construct: monomeric when expressed alone; contains heme b

[1] = target: FzmP, co-expressed with KinI (not stated (Streptomyces sp. S-149 or Streptomyces sp. XY332 cloned)); assay: SEC; anaerobic size exclusion chromatography of proteins expressed alone or co-expressed and purified
[2] = target: T3, KinJ from Streptomyces murayamaensis ATCC 21414 (tag placement not stated for the experiment) (Streptomyces murayamaensis ATCC 21414, UniProt A0A385LMJ2); assay: reciprocal His6 co-purification (pull-down) and anaerobic SEC of the co-expressed complex; co-expressed in E. coli and purified anaerobically as a complex
T3 chain: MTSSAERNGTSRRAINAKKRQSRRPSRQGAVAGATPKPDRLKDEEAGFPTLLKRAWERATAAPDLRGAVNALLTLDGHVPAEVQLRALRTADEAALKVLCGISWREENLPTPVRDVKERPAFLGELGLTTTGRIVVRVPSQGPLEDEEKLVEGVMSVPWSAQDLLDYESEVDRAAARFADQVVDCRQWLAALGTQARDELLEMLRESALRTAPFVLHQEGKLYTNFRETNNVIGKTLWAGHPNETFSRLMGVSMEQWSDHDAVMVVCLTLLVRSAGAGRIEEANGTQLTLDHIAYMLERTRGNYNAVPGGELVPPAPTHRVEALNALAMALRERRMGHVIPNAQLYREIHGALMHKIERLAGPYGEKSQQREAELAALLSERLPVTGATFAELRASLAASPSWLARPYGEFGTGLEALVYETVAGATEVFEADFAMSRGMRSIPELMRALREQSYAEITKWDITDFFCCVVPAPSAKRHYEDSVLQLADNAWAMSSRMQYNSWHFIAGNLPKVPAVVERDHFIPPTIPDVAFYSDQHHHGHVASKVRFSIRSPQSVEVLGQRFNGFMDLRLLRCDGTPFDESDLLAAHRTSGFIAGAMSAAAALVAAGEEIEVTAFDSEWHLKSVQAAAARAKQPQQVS

Molecule: N[C@@H](CC(=O)O)C(=O)O [L-aspartate]
LC-MS detection of L-hydrazinosuccinate (KinIJ; NaNO2, sodium dithionite): indicating the formation of an N–N bond-containing product from L-Asp and NO2^–

Molecule: O=NO [NO2^–]
LC-MS detection of L-hydrazinosuccinate (KinIJ; L-aspartate, sodium dithionite, 15N-labelled nitrite also used): indicating the formation of an N–N bond-containing product from L-Asp and NO2^–
EPR spectroscopy (KinJ): addition of NO2^– (a strong field ligand) was associated with the formation of a 6-coordinate rhombic

stoichiometry N [1]: 2
Molecule: FzmP, co-expressed with KinI (enzyme)

binding result [2]: binds
B1: KinI (ferredoxin; tag placement not stated for the experiment) (protein)
chain: MPTNTSDDSLDETVEGSVSGRDKLIAERTRSETWKKPPRRIERAECITCDTCLRACPPEFNAIFDNGLDVVIIPELCSGCPKCVLECPVDCIYVDEDWTPTTDEMWKHIGLTAEGVS
